The values that follow come from US9133158B2, “Bicyclic dihydroisoquinoline-1-one derivatives” (Hoffmann-La Roche Inc., priority 2011, dated 2015).

Experiment [1] addresses T1, human CYP11B1 (Homo sapiens, UniProt P15538).
T1 construct: expressed in transfected cells
T1 sequence (P15538 25-503): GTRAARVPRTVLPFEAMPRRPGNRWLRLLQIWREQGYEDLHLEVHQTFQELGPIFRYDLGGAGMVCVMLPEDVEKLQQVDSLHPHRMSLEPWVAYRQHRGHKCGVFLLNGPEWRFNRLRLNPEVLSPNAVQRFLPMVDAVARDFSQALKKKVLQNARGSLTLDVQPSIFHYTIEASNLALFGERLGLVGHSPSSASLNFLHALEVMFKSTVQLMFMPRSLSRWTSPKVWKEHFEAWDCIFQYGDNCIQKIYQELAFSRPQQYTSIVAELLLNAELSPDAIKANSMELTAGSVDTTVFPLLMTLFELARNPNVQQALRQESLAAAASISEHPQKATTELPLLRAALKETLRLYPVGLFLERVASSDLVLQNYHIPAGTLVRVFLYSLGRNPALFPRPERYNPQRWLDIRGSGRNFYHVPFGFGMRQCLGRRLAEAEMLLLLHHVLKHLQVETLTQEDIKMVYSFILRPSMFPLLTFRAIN
As to the kind of experiment: G-402 cellular enzyme assay, human CYP11B1 (cortisol release, HTRF). The experiment is classed as cell-based. Particulars: G-402 cells, 1 μM Deoxycortisol. In short, it runs like this:
(§1)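 Supernatant steroid product measured by HTRF (aldosterone for CYP11B2, cortisol for CYP11B1) after 16 h exposure of stably transfected G-402 cells to compound. Substrates were 1 μM deoxycorticosterone and 1 μM deoxycortisol, respectively; EC50 derived from a four-parameter MMF curve fit.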

The target in experiment [2] is T2, human CYP11B2 (Homo sapiens, UniProt P19099).
T2 construct: expressed in transfected cells
T2 sequence (P19099 25-503): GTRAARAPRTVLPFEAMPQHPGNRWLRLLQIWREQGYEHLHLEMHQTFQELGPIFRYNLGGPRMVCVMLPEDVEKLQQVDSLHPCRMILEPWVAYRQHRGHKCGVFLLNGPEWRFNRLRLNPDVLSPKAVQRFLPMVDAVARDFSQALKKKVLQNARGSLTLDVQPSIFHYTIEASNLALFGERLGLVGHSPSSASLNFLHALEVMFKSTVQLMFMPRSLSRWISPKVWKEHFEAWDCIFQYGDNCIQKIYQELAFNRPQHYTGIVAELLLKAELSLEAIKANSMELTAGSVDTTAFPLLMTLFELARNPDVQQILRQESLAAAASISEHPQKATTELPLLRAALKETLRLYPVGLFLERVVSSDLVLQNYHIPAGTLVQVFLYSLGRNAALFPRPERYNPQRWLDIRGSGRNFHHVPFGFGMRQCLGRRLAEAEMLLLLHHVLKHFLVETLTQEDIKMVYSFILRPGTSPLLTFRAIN
As to the kind of experiment: G-402 cellular enzyme assay, human CYP11B2 (aldosterone release, HTRF). Type of experiment: cell-based. Particulars: G-402 cells, 1 μM Deoxycorticosterone. In short, it runs like this: as §1
In general terms: TR-FRET usually uses a lanthanide donor and a delayed reading to cut background.

Each structure is given as a SMILES string.

As for `Nc1cccc2c(N3CCc4cc(Cl)ccc4C3=O)cncc12` [Example 288, 8′-Amino-6-chloro-3,4-dihydro-[2,4′]biisoquinolinyl-1-one], the EC50 came to 8870 nM in experiment [1] and 539 nM in experiment [2].

With `CC1Cc2cc(Cl)ccc2C(=O)N1c1cncc(F)c1` (centres unmarked) [Example 89, 6-Chloro-2-(5-fluoro-pyridin-3-yl)-3-methyl-3,4-dihydro-2H-isoquinolin-1-one], the concentration giving a half-maximal response (EC50) in experiment [1] turned out to be 16800 nM; in experiment [2], 272 nM.

Turning to `Cc1nncn1Cc1cncc(N2CCc3cc(Cl)ccc3C2=O)c1` [Example 177, 6-Chloro-2-[5-(3-methyl-[1,2,4]triazol-4-ylmethyl)-pyridin-3-yl]-3,4-dihydro-2H-isoquinolin-1-one], the EC50 in experiment [1] is 6310 nM; in experiment [2] it was 412 nM.

With `O=C(Nc1cncc(N2CCc3cc(Cl)ccc3C2=O)c1)c1ccc(F)cc1` [Example 249, N-[5-(6-Chloro-1-oxo-3,4-dihydro-1H-isoquinolin-2-yl)-pyridin-3-yl]-4-fluoro-benzamide], the EC50 stood at 7600 nM in experiment [1] and 3220 nM in experiment [2].

With `NC(=O)COc1cncc(N2CCc3cc(Cl)ccc3C2=O)c1` [Example 253, 2-[5-(6-Chloro-1-oxo-3,4-dihydro-1H-isoquinolin-2-yl)-pyridin-3-yloxy]-acetamide], the concentration giving a half-maximal response (EC50) in experiment [1] was found to be 10000 nM; in experiment [2], 581 nM.

As for `COC(c1cncc(N2CCc3cc(Cl)ccc3C2=O)c1)C(F)(F)F` (centres unmarked) [Example 19, 6-Chloro-2-[5-(2,2,2-trifluoro-1-methoxy-ethyl)-pyridin-3-yl]-3,4-dihydro-2H-isoquinolin-1-one], the EC50 in experiment [1] was determined as 198 nM; in experiment [2], 60.3 nM.

For `COc1ccc2c(n1)C(C)(C)N(c1cncc(-c3ccnn3C)c1)C2=O` [Example 426, 2-Methoxy-7,7-dimethyl-6-[5-(2-methyl-2H-pyrazol-3-yl)-pyridin-3-yl]-6,7-dihydro-pyrrolo[3,4-b]pyridin-5-one], the concentration for a half-maximal effect (EC50) in experiment [1] amounted to 572 nM; in experiment [2], 12.1 nM.

For `O=C1c2ccc(Cl)cc2CCN1c1cncc(COCC(F)(F)F)c1` [Example 202, 6-Chloro-2-[5-(2,2,2-trifluoro-ethoxymethyl)-pyridin-3-yl]-3,4-dihydro-2H-isoquinolin-1-one], the figures for the EC50 in experiment [1] and in experiment [2] were 473 nM and 65.3 nM, respectively.

`CSc1cncc(N2CCc3cc(Cl)ccc3C2=O)c1` [Example 59, 6-Chloro-2-(5-methylsulfanyl-pyridin-3-yl)-3,4-dihydro-2H-isoquinolin-1-one]: the EC50 in experiment [1] was determined as 135 nM; in experiment [2], 8.1 nM.

Take `O=C1c2cc(F)c(Cl)cc2CCN1c1cccnc1` [Example 101, 6-Chloro-7-fluoro-2-pyridin-3-yl-3,4-dihydro-2H-isoquinolin-1-one]: the EC50 in experiment [1] turned out to be 3540 nM; in experiment [2] it was 104 nM.

Take `CCC1c2cc(Cl)ccc2C(=O)N1c1cncc(-c2ccnn2C)c1` (single isomer, unassigned) [Example 428, (R or S)-5-Chloro-3-ethyl-2-[5-(2-methyl-2H-pyrazol-3-yl)-pyridin-3-yl]-2,3-dihydro-isoindol-1-one]: the concentration giving a half-maximal response (EC50) in experiment [1] is 105 nM; in experiment [2], 20 nM.

With `CCc1ccc(C(O)c2cncc(N3CCc4cc(Cl)ccc4C3=O)c2)cc1` (centres unmarked) [Example 33, 6-Chloro-2-{5-[(4-ethyl-phenyl)-hydroxy-methyl]-pyridin-3-yl}-3,4-dihydro-2H-isoquinolin-1-one], the 50% effective concentration (EC50) in experiment [1] was found to be 485 nM; in experiment [2], 210 nM.

On to `O=C1c2ccc(Cl)cc2C(C2CC2)N1c1cncc(F)c1` (centres unmarked) [Example 297, 5-Chloro-3-cyclopropyl-2-(5-fluoro-pyridin-3-yl)-2,3-dihydro-isoindol-1-one], for which the results for the concentration for a half-maximal effect (EC50) in experiment [1] and in experiment [2] were 12800 nM and 207 nM, respectively.

Regarding `O=C1c2ccc(Cl)cc2CCN1c1cncc(-c2cnoc2)c1` [Example 243, 6-Chloro-2-(5-isoxazol-4-yl-pyridin-3-yl)-3,4-dihydro-2H-isoquinolin-1-one], the results for the concentration giving a half-maximal response (EC50) in experiment [1] and in experiment [2] were 3340 nM and 268 nM, respectively.

In the case of `CCS(=O)(=O)N1CCC(Oc2cncc(N3C(=O)c4ccc(Cl)cc4C3(C)C)c2)C1` (centres unmarked) [Example 446, 5-Chloro-2-[5-(1-ethanesulfonyl-pyrrolidin-3-yloxy) -pyridin-3-yl]-3,3-dimethyl-2,3-dihydro-isoindol-1-one], the EC50 was determined as 263 nM in experiment [1] and 185 nM in experiment [2].

In the case of `O=C1c2ccc(Cl)cc2CCN1c1cncc(C(O)C2CC2)c1` (centres unmarked) [Example 20, 6-Chloro-2-[5-(cyclopropyl-hydroxy-methyl)-pyridin-3-yl]-3,4-dihydro-2H-isoquinolin-1-one], the 50% effective concentration (EC50) in experiment [1] was determined as 1050 nM; in experiment [2], 85.9 nM.

As for `O=C1c2ccc(Cl)cc2CN1c1cncc(N2CC[C@@H](O)C2)c1` [Example 138, 5-Chloro-2-[5-((R)-3-hydroxy-pyrrolidin-1-yl)-pyridin-3-yl]-2,3-dihydro-isoindol-1-one], the figures for the concentration giving a half-maximal response (EC50) in experiment [1] and in experiment [2] were 193 nM and 16.2 nM, respectively.

For `CC[C@H]1c2cc(Cl)ccc2C(=O)N1c1cncc2c1CCC[C@H]2NC(C)=O` (single isomer, unassigned) [Example 357, N-[(R or S)-4-((S or R)-5-Chloro-3-ethyl-1-oxo-1,3-dihydro-isoindol-2-yl)-5,6,7,8-tetrahydro-isoquinolin-8-yl]-acetamide], the EC50 in experiment [1] worked out at 3220 nM; in experiment [2], 98.2 nM.

Take `O=C1c2ccc(Cl)cc2CCN1c1cncc(Cn2ccc3ccc(F)cc32)c1` [Example 184, 6-Chloro-2-[5-(6-fluoro-indol-1-ylmethyl)-pyridin-3-yl]-3,4-dihydro-2H-isoquinolin-1-one]: the EC50 worked out at 271 nM in experiment [1] and 17.7 nM in experiment [2].

Turning to `CN1CCN(Cc2cncc(N3CCc4cc(Cl)ccc4C3=O)c2)C1=O` [Example 159, 6-Chloro-2-[5-(3-methyl-2-oxo-imidazolidin-1-ylmethyl)-pyridin-3-yl]-3,4-dihydro-2H-isoquinolin-1-one], the half-maximal effective concentration (EC50) in experiment [1] is 4460 nM; in experiment [2], 209 nM.

For the compound `CNC(C)c1cncc(N2CCc3cc(Cl)ccc3C2=O)c1` (centres unmarked) [Example 265, 6-Chloro-2-[5-(1-methylamino-ethyl)-pyridin-3-yl]-3,4-dihydro-2H-isoquinolin-1-one], the 50% effective concentration (EC50) in experiment [1] is 5020 nM; in experiment [2], 437 nM.

For the compound `CC1(C)c2cc(Cl)ccc2C(=O)N1c1cncc(CNC(=O)c2cccnc2Cl)c1` [Example 433, 2-Chloro-N-[5-(6-chloro-1,1-dimethyl-3-oxo-1,3-dihydro-isoindol-2-yl)-pyridin-3-ylmethyl]-nicotinamide], the concentration giving a half-maximal response (EC50) was 1310 nM in experiment [1] and 14.3 nM in experiment [2].

Take `O=C1c2ccc(Cl)cc2CCN1c1cncc2cc[nH]c12` [Example 72, 6-Chloro-2-(1H-pyrrolo[3,2-c]pyridin-7-yl)-3,4-dihydro-2H-isoquinolin-1-one]: the figures for the EC50 in experiment [1] and in experiment [2] were 16500 nM and 588 nM, respectively.

Consider `O=C1c2ccc(Cl)cc2CCN1c1cncc(Cn2cnnc2)c1` [Example 179, 6-Chloro-2-(5-[1,2,4]triazol-4-ylmethyl-pyridin-3-yl)-3,4-dihydro-2H-isoquinolin-1-one], for which the half-maximal effective concentration (EC50) in experiment [1] was determined as 7720 nM; in experiment [2] it was 620 nM.

Turning to `CC1Cc2cc(Cl)ccc2C(=O)N1c1cncc(CO)c1` (centres unmarked) [Example 86, 6-Chloro-2-(5-hydroxymethyl-pyridin-3-yl)-3-methyl-3,4-dihydro-2H-isoquinolin-1-one], the figures for the EC50 in experiment [1] and in experiment [2] were 7770 nM and 377 nM, respectively.

As usually defined, the EC50 is the concentration that produces a half-maximal response. Low values mean a more potent agent, high ones a less potent agent.
